Biological target: T1, human MRGPRX2 (Homo sapiens, UniProt Q96LB1)
T1 construct: expressed in transfected cells; host or cells: CHO cells, stably transfected (G418 and Hygromycin B selection)
T1 sequence (Q96LB1 1-330): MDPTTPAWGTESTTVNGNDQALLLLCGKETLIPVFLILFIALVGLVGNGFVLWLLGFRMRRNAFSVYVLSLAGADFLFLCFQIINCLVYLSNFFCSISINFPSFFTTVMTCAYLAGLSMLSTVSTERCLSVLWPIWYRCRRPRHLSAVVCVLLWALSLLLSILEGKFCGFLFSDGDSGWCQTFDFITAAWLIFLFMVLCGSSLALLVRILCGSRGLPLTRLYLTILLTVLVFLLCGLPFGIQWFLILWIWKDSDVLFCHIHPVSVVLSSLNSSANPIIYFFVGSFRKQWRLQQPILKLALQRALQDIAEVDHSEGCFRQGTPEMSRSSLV
Test: MRGPRX2 activity: IP-One Gq HTRF assay in CHO cells, antagonism versus 0.3 uM Cortistatin-14
Type: cell-based
Conditions: versus 0.3 uM Cortistatin-14 agonist, CHO cells expressing human MRGPRX2, read-out: MRGPRX2 Antagonist Activity
Summary of the method: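 Antagonist IC50 was derived from the HTRF IP-1 signal after co-addition of compounds (10 points, top 30 uM, 3-fold steps) and 0.3 μM Cortistatin-14 agonist to human MRGPRX2-expressing CHO cells. Assay buffer contained 50 mM LiCl, pH 8; plates sat 1 h at 37 °C, then 1 h at room temperature.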

Structure (SMILES)	IC50 [nM]
CC(C)c1ccc(NC2=NS(=O)(=O)c3cc(F)c(F)c(Cc4ccccc4Cl)c3N2)cc1 [Compound 4-15, 5-(2-chlorobenzyl)-6,7-difluoro-3-((4-isopropylphenyl)amino)-4H-benzo[e][1,2,4]thiadiazine 1,1-dioxide]	> 2500
O=S1(=O)N=C(NCc2ccccc2C(F)(F)F)Nc2c1cc(F)c(F)c2Cc1ccccc1Cl [Compound 4-16, 5-(2-chlorobenzyl)-6,7-difluoro-3-((2-(trifluoromethyl)benzyl)amino)-4H-benzo[e][1,2,4]thiadiazine 1,1-dioxide]	100 to 500
O=S1(=O)N=C(NCc2cnccc2C(F)(F)F)Nc2c1cc(F)c(F)c2Cc1ccccc1Cl [Compound 4-17, 5-(2-chlorobenzyl)-6,7-difluoro-3-(((4-(trifluoromethyl)pyridin-3-yl)methyl)amino)-4H-benzo[e][1,2,4]thiadiazine 1,1-dioxide]	100 to 500
O=S1(=O)N=C(NCc2ncccc2O)Nc2c1cc(F)c(F)c2Cc1ccccc1Cl [Compound 4-18, 5-(2-chlorobenzyl)-6,7-difluoro-3-(((3-hydroxypyridin-2-yl)methyl)amino)-4H-benzo[e][1,2,4]thiadiazine 1,1-dioxide]	> 2500
O=S1(=O)N=C(Nc2ccc(F)cc2)Nc2c1cc(F)c(F)c2Cc1ccccc1Cl [Compound 4-19, 5-(2-chlorobenzyl)-6,7-difluoro-3-((4-fluorophenyl)amino)-4H-benzo[e][1,2,4]thiadiazine 1,1-dioxide]	501 to 1000
O=S1(=O)N=C(NCc2cccc3ccccc23)Nc2c1cc(F)c(F)c2Cc1ccccc1Cl [Compound 4-20, 5-(2-chlorobenzyl)-6,7-difluoro-3-((naphthalen-1-ylmethyl)amino)-4H-benzo[e][1,2,4]thiadiazine 1,1-dioxide]	501 to 1000
Cc1cccc(C)c1Cc1c(F)ccc2c1NC(NCc1ncccc1F)=NS2(=O)=O [Compound 5-1, 5-(2,6-dimethylbenzyl)-6-fluoro-3-(((3-fluoropyridin-2-yl)methyl)amino)-4H-benzo[e][1,2,4]thiadiazine 1,1-dioxide]	< 100
O=S1(=O)N=C(NCc2ncccc2F)Nc2c1ccc(F)c2CCc1ccccc1 [Compound 6-1, 6-fluoro-3-(((3-fluoropyridin-2-yl)methyl)amino)-5-phenethyl-4H-benzo[e][1,2,4]thiadiazine 1,1-dioxide]	100 to 500
O=S1(=O)N=C(NCc2ccccc2F)Nc2c(Cc3ccccc3Cl)cccc21 [Compound 6-2, 5-(2-chlorobenzyl)-3-((2-fluorobenzyl)amino)-4H-benzo[e][1,2,4]thiadiazine 1,1-dioxide]	< 100
O=S1(=O)N=C(NCc2ccccc2F)Nc2c(Cc3ccccc3)cccc21 [Compound 6-3, 5-benzyl-3-((2-fluorobenzyl)amino)-4H-benzo[e][1,2,4]thiadiazine 1,1-dioxide]	< 100
O=S1(=O)N=C(NCc2ccccc2F)Nc2c(Cc3c(Cl)cccc3Cl)cccc21 [Compound 6-5, 5-(2,6-dichlorobenzyl)-3-((2-fluorobenzyl)amino)-4H-benzo[e][1,2,4]thiadiazine 1,1-dioxide]	< 100
O=S1(=O)N=C(NCc2ccccc2F)Nc2c(Cc3ccccc3F)cccc21 [Compound 6-6, 5-(2-fluorobenzyl)-3-((2-fluorobenzyl)amino)-4H-benzo[e][1,2,4]thiadiazine 1,1-dioxide]	< 100
Cc1ccccc1Cc1cccc2c1NC(NCc1ccccc1F)=NS2(=O)=O [Compound 6-7, 3-((2-fluorobenzyl)amino)-5-(2-methylbenzyl)-4H-benzo[e][1,2,4]thiadiazine 1,1-dioxide]	< 100
O=S1(=O)N=C(NCc2ccccc2F)Nc2c(Cc3cccc(F)c3)cccc21 [Compound 6-8, 5-(3-fluorobenzyl)-3-((2-fluorobenzyl)amino)-4H-benzo[e][1,2,4]thiadiazine 1,1-dioxide]	< 100
COc1cccc(Cc2cccc3c2NC(NCc2ccccc2F)=NS3(=O)=O)c1 [Compound 6-9, 3-((2-fluorobenzyl)amino)-5-(3-methoxybenzyl)-4H-benzo[e][1,2,4]thiadiazine 1,1-dioxide]	< 100
Cc1cccc(Cc2cccc3c2NC(NCc2ccccc2F)=NS3(=O)=O)c1 [Compound 6-10, 3-((2-fluorobenzyl)amino)-5-(3-methylbenzyl)-4H-benzo[e][1,2,4]thiadiazine 1,1-dioxide]	< 100
O=S1(=O)N=C(NCc2ccccc2F)Nc2c(Cc3cccc(Cl)c3)cccc21 [Compound 6-11, 5-(3-chlorobenzyl)-3-((2-fluorobenzyl)amino)-4H-benzo[e][1,2,4]thiadiazine 1,1-dioxide]	< 100

Structure (SMILES)	IC50 [nM]
N#Cc1cccc(Cc2cccc3c2NC(NCc2ccccc2F)=NS3(=O)=O)c1 [Compound 6-12, 3-((3-((2-fluorobenzyl)amino)-1,1-dioxido-4H-benzo[e][1,2,4]thiadiazin-5-yl)methyl)benzonitrile]	< 100
O=S1(=O)N=C(NCc2ccccc2F)Nc2c(Cc3ccc(Cl)cc3)cccc21 [Compound 6-13, 5-(4-chlorobenzyl)-3-((2-fluorobenzyl)amino)-4H-benzo[e][1,2,4]thiadiazine 1,1-dioxide]	100 to 500
O=S1(=O)N=C(NCc2ccccc2F)Nc2c(Cc3ccc(F)cc3)cccc21 [Compound 6-14, 5-(4-fluorobenzyl)-3-((2-fluorobenzyl)amino)-4H-benzo[e][1,2,4]thiadiazine 1,1-dioxide]	< 100
COc1ccc(Cc2cccc3c2NC(NCc2ccccc2F)=NS3(=O)=O)cc1 [Compound 6-15, 3-((2-fluorobenzyl)amino)-5-(4-methoxybenzyl)-4H-benzo[e][1,2,4]thiadiazine 1,1-dioxide]	100 to 500
Cc1ccc(Cc2cccc3c2NC(NCc2ccccc2F)=NS3(=O)=O)cc1 [Compound 6-16, 3-((2-fluorobenzyl)amino)-5-(4-methylbenzyl)-4H-benzo[e][1,2,4]thiadiazine 1,1-dioxide]	100 to 500
Cc1cccc(C)c1Cc1cccc2c1NC(NCc1ccccc1F)=NS2(=O)=O [Compound 6-17, 5-(2,6-dimethylbenzyl)-3-((2-fluorobenzyl)amino)-4H-benzo[e][1,2,4]thiadiazine 1,1-dioxide]	< 100
O=S1(=O)N=C(NCc2ccccc2F)Nc2c(CCc3ccccc3)cccc21 [Compound 6-18, 3-((2-fluorobenzyl)amino)-5-phenethyl-4H-benzo[e][1,2,4]thiadiazine 1,1-dioxide]	< 100
O=S1(=O)N=C(NCc2ccccc2F)Nc2c(C3(c4ccccc4)CC3)cccc21 [Compound 6-19, 3-((2-fluorobenzyl)amino)-5-(1-phenylcyclopropyl)-4H-benzo[e][1,2,4]thiadiazine 1,1-dioxide]	< 100
CC(c1cccc(F)c1Cl)c1c(F)ccc2c1NC(NCc1ncccc1F)=NS2(=O)=O (stereo not shown) [Compound 7-1, 5-(1-(2-chloro-3-fluorophenyl)ethyl)-6-fluoro-3-(((3-fluoropyridin-2-yl)methyl)amino)-4H-benzo[e][1,2,4]thiadiazine 1,1-dioxide]	< 100
Cc1c(F)cccc1CNC1=NS(=O)(=O)c2ccc(F)c(C(C)c3cccc(F)c3Cl)c2N1 (stereo not shown) [Compound 7-2, 5-(1-(2-chloro-3-fluorophenyl)ethyl)-6-fluoro-3-((3-fluoro-2-methylbenzyl)amino)-4H-benzo[e][1,2,4]thiadiazine 1,1-dioxide]	< 100
CC(c1ccccc1F)c1c(F)ccc2c1NC(NCc1cccnc1)=NS2(=O)=O (stereo not shown) [Compound 7-3, 6-fluoro-5-(1-(2-fluorophenyl)ethyl)-3-((pyridin-3-ylmethyl)amino)-4H-benzo[e][1,2,4]thiadiazine 1,1-dioxide]	100 to 500
CC(c1ccccc1F)c1c(F)ccc2c1NC(NCc1ccccc1)=NS2(=O)=O (stereo not shown) [Compound 7-4, 3-(benzylamino)-6-fluoro-5-(1-(2-fluorophenyl)ethyl)-4H-benzo[e][1,2,4]thiadiazine 1,1-dioxide]	< 100
CC(c1ccccc1F)c1c(F)ccc2c1NC(NCc1ccccc1F)=NS2(=O)=O (stereo not shown) [Compound 7-5, 6-fluoro-3-((2-fluorobenzyl)amino)-5-(1-(2-fluorophenyl)ethyl)-4H-benzo[e][1,2,4]thiadiazine 1,1-dioxide]	< 100
CC(c1ccccc1F)c1c(F)ccc2c1NC(NCc1ccc(F)cc1F)=NS2(=O)=O (stereo not shown) [Compound 7-6, 3-((2,4-difluorobenzyl)amino)-6-fluoro-5-(1-(2-fluorophenyl)ethyl)-4H-benzo[e][1,2,4]thiadiazine 1,1-dioxide]	< 100
CC(c1ccccc1F)c1c(F)ccc2c1NC(NCc1ccc(F)c(Cl)c1)=NS2(=O)=O (stereo not shown) [Compound 7-7, 3-((3-chloro-4-fluorobenzyl)amino)-6-fluoro-5-(1-(2-fluorophenyl)ethyl)-4H-benzo[e][1,2,4]thiadiazine 1,1-dioxide]	< 100
CC(c1ccccc1F)c1c(F)ccc2c1NC(NCc1cc(Cl)cc(Cl)c1)=NS2(=O)=O (stereo not shown) [Compound 7-8, 3-((3,5-dichlorobenzyl)amino)-6-fluoro-5-(1-(2-fluorophenyl)ethyl)-4H-benzo[e][1,2,4]thiadiazine 1,1-dioxide]	< 100
COc1ccccc1CNC1=NS(=O)(=O)c2ccc(F)c(C(C)c3ccccc3F)c2N1 (stereo not shown) [Compound 7-9, 6-fluoro-5-(1-(2-fluorophenyl)ethyl)-3-((2-methoxybenzyl)amino)-4H-benzo[e][1,2,4]thiadiazine 1,1-dioxide]	< 100

Reference: US20250170141A1, “MRGPRX2 MODULATORS AND RELATED METHODS OF TREATMENT” (Escient Pharmaceuticals, Inc., priority 2023, published 2025)
